# Tests used:
# Panc-1 [1] = assay: Soft agar colony formation; type: cell-based, human
# Procedure: FIG. 1. Effects of some compounds of Formula (I) on RalGEF inhibitor on soft agar growth and normal growth in 2D of pancreatic carcinoma cell lines. In FIGS. 1A and 1B, Panc-1 (ATCC® CRL-1469™) and MiaPaCa-2 (ATCC® CRL-1420™) mutant Ras containing pancreatic tumor cell lines were plated in soft agar in the presence of 10 μM or 0.9 μM of compound I-1 and scored for the formation of colonies. In FIGS. 1C and 1D, compound I-1 was then tested for the ability to inhibit cell growth on the same cell lines under normal 2D growth conditions on plastic. “0” is the carrier. Cells were seeded at the same density and scored after two weeks in culture.
# Human pancreatic tumor cell lines MiaPaca-2 and Panc-1 contain activated K-Ras and were used in the initial screen to identify compound I-1. Soft agar colony formation remains an established in vitro assay to predict tumorigenicity and was used to predict tumorigenicity for compound I-1.
# [2] = system: Caov-3 [Caov3] (ovarian cancer); assay: Tumorigenic phenotype in vitro, Ras driven tumor cell line; type: cell-based; settings: data not shown
# Source text: (ATCC® HTB-75™)(ovarian cancer); D283 Med (ATCC® HTB-185™) (Medulloblastoma); A549 (ATCC® CCL-185™) (lung cancer); and LNCaP clone FGC (ATCC® CRL1740™) (prostate cancer).
# MiaPaCa-2 = assay: Normal 2D growth on plastic; type: cell-based, human; settings: normal 2D growth conditions on plastic, 1 week, FIG. 1D
# Procedure: (§1) FIG. 1. Effects of some compounds of Formula (I) on RalGEF inhibitor on soft agar growth and normal growth in 2D of pancreatic carcinoma cell lines. In FIGS. 1A and 1B, Panc-1 (ATCC® CRL-1469™) and MiaPaCa-2 (ATCC® CRL-1420™) mutant Ras containing pancreatic tumor cell lines were plated in soft agar in the presence of 10 μM or 0.9 μM of compound I-1 and scored for the formation of colonies. In FIGS. 1C and 1D, compound I-1 was then tested for the ability to inhibit cell growth on the same cell lines under normal 2D growth conditions on plastic. “0” is the carrier. […]
# Panc-1 [3] = assay: Normal 2D growth on plastic; type: cell-based, human; settings: normal 2D growth conditions on plastic, 1 week, FIG. 1C
# Procedure: as §1
# [4] = target: T1, interaction of K-Ras with RalGDS (Homo sapiens, UniProt Q12967); assay: Ras/RalGEF binding, immunoprecipitation and immunoblot from co-transfected HEK-293 cells; settings: 10 μM, HA K-Ras 12v and GFP-RalGDS, IP/IB, FIG. 3A
# T1 construct: expressed in transfected cells; host or cells: HEK-293
# T1 sequence (Q12967 1-914): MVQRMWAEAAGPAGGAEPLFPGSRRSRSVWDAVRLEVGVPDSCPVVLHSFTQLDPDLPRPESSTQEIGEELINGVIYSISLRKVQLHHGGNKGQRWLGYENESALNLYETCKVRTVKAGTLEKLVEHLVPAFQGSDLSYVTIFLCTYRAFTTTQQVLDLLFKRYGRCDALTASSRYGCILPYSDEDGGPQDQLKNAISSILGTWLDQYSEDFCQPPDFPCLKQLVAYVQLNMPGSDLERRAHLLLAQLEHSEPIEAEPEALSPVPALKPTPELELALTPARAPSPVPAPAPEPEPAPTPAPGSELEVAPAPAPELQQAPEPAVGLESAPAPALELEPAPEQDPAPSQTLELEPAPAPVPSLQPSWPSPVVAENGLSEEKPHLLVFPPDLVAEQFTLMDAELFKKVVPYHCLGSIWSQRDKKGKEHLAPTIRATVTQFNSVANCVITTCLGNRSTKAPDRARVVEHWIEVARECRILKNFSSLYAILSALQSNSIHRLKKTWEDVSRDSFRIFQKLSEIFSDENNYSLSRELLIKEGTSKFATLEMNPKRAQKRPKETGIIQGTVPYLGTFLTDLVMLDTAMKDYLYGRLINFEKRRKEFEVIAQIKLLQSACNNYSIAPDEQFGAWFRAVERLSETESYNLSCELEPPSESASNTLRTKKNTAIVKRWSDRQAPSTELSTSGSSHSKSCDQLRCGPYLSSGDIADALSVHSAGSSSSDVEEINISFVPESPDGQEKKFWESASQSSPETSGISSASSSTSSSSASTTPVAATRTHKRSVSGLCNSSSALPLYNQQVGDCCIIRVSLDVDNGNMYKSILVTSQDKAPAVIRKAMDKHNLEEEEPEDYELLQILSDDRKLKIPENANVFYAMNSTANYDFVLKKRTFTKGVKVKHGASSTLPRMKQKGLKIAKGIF
# Ras/Raf/MAPK pathway = assay: MAPK pathway activation by phosphoERK antibody in cells with endogenous hyper-activated Ras; type: cell-based; settings: 10 μM
# Procedure: Specific Inhibition of endogenous Ras/RalGEF signaling. FIG. 4. Specific suppression of Ral activation by some compounds of Formula (I). Cells with endogenous hyper-activated Ras were assayed for endogenous Ral activation in the presence or absence of inhibitor (10 μM) using a Cell Biolabs (SanDiego Calif.) kit. Compound I-1 was dissolved in DMSO; DMSO serves as the carrier negative control. IP is immunoprecipitation. IB is immunoblot. Cell lysates were then assayed for the levels of MAPK pathway activation using a phosphoERK antibody. They were the same. Actin is a loading control.
# RalGEFs drive Ral into the active, GTP bound form so it can bind its effector RalBP1. […] Commercially available kits available from several vendors use RalBP1 attached to beads as an affinity reagent specific to the active form of Ral. By measuring the level of activated Ral and comparing it to the total levels of Ral, it is possible to measure the state of endogenous Ral activation. We assayed untransfected cells containing endogenous hyper-activated Ras for the effects of compound I-1 treatment on endogenous levels of active Ral levels.
# RalA = assay: Activated RalA pull down in lung tissue of Mia-PaCa2 xenograft mice; type: in vivo, NRG mice; settings: treated vs carrier treated xenograft mouse, FIG. 5
# Procedure: Some compounds of Formula (I) suppress Ral GTP levels in vivo—FIG. 5 NRG mice were provided with s.c. xenografts of Mia-PaCa2 cells. Tissue from the lungs of a carrier treated xenograft mouse and a compound I-1 treated mouse were assayed for the levels of activated RalA using a pull down assay kit using the manufacter's protocol (Cat. #BK040 from Cytoskeleton, Inc., Denver Colo.).
# Mia-PaCa-2 cells = assay: Mia-PaCa-2 sub-cutaneous xenograft, primary tumor growth and lung metastasis; type: in vivo, NRG mice; settings: 10 mg/kg ip every other day for 2 weeks, scored one week later
# Procedure: Some compounds of Formula (I) suppress pancreatic cancer cell metastasis—FIG. 6. NRG mice were sub-cutaneously inoculated with PBS (“no tumor cells”) or 5×10^6 Ras driven Mia-PaCa-2 cells. Mice were allowed to recover for 1 week and then injected (ip) with PBS/DMSO carrier or 10 mg/kg of compound I-1 every other day for 2 weeks. One week later, mice were scored for primary tumor growth and lung metastasis.
smiles,measurement,setting,value
COc1cccc(CNc2nc(CN(C)Cc3cccc(OC)c3)nc3sc(C)c(C)c23)c1 [Compound I-1],ability of the cells to grow in soft agar,"Panc-1 [1]; 10 μM, FIG. 1A",almost completely blocked
same,tumorigenic phenotype in vitro,Panc-1 [1]; FIG. 1A,blocks the tumorigenic phenotype in vitro at low μM or sub μM levels
same,IC50,"Panc-1 [1]; Homo sapiens, PANC-1, soft agar, titration experiments, data not shown, read-out: IC50 (concentration that inhibits 50% of colony formation)",< 1000 nM
same,tumorigenic phenotype in vitro,[2],blocks the tumorigenic phenotype in vitro
same,cell growth in 2D,MiaPaCa-2,no reduction in growth
same,cell growth in 2D,Panc-1 [3],no reduction in growth
same,stable association of Ras and RalGDS,[4],inhibited the stable association of Ras and RalGDS
same,Ras/Raf/MAPK pathway activation (levels of phospho ERK),Ras/Raf/MAPK pathway,no inhibition of the Ras/Raf/MAPK pathway activation was detected
same,levels of active RalA in lung tissue,RalA,reduced levels of active RalA
same,effects on the primary tumor,Mia-PaCa-2 cells,not obvious
same,lung metastasis,Mia-PaCa-2 cells; FIG. 6,metastasis was inhibited

# Source: patent publication US11312690B2, “Compounds, compositions, methods for treating diseases, and methods for preparing compounds” (UNIVERSITY OF LOUISVILLE RESEARCH FOUNDATION, INC., priority 2015, dated 2022)
